Test results reported in US8822440B2, “Inhibiting cyclin D polypeptides” (Mayo Foundation for Medical Education and Research, priority 2006, dated 2014).
Entries after “also recorded” stand apart in the source; their conditions may differ.

Experiments:
CCND2 promoter = assay: CCND2 promoter-luciferase transactivation assay in NIH3T3 cells with or without c-maf; format: cell-based, mouse; conditions: ~5 μM, 16 hours; hit = 50% or more reduction in luciferase relative to cell viability
Procedure: Using this assay, Lopac (n=1280), Prestwick (n=1120), and Spectrum (n=2000) libraries of drugs and natural compounds were screened. In a parallel MTS assay, the effect of each compound on 3T3 viability was determined, allowing exclusion of compounds that caused secondary suppression of CCND2 due to non-specific cytotoxicity. […] These included monensin, patulin, β-lapachone, camptothecin, dihydrogambogic acid, gentian violet, thapsigargin, brefeldin A, pristimerin, and kinetin riboside.
Full-length c-maf cDNA was subcloned into an IRES-GFP MIEV retroviral vector and introduced into NIH3T3 cells by infection. Stable clones expressing GFP and c-maf were selected by flow cytometry and immunoblotting, respectively. The promoter of human cyclin D2 (−894 to −4; Brooks et al., J. Biol. Chem., 271, 9090-9 (1996)), containing c-maf responsive element sequence (MARE), was cloned from DNA from HeLa cells and inserted into the pGLbasic firefly luciferase vector (Promega, Madison, Wis.) immediately upstream of the luciferase gene. This construct was co-transfected with pcDNA3 (containing a neomycin resistance gene) into both NIH3T3 wild type cells and NIH3T3 cells stably over-expressing c-maf-IRES-GFP. Cells stably expressing c-maf, GFP, and luciferase were selected.
(§1) NIH3T3 cells stably expressing c-maf and the CCND2 promoter driving luciferase (13,000 cells per well) were plated in 96-well plates by a Biomek FX liquid handler (Beckman, Fullerton, Calif.). After the cells had adhered, they were treated with aliquots of molecules from LOPAC (Sigma, St. Louis, Mo.), Prestwick (Prestwick Chemical Inc, Illkirch, France) or Spectrum (Microsource Discovery Systems, Gaylordsville, Conn.) libraries of off-patent drugs and chemicals at a final concentration of ˜5 μM and <0.1% DMSO. Cells were incubated with compounds at 37° C. for 16 hours.
Luciferase assay. Luciferase activity was assessed according to the manufacturer's instructions (Promega, Madison, Wis.). Briefly, the cell culture medium was removed using an EMBLA plate washer (Molecular Devices, X) and Glo Lysis buffer (Promega) was added by robot. After a 10-minute incubation, an equal volume of Bright-Glo Luciferase substrate (Promega) was added, and luminescence signal was detected with a 96-well Luminoskan luminescence plate reader (Thermo Labsystem, Waltham, Mass.) using a 5 second integration.
Studies of kinetin riboside using 3T3-D2-luc cells. To examine CCND2 suppression induced by kinetin riboside, the reporter cells were exposed to kinetin riboside in combination with other drugs (all purchased from Sigma, St. Loius, Mo.) that influence CCND2 transcription or inhibit nucleoside transport or phosphorylation. NIH3T3 cells expressing the CCND2 promoter driving luciferase were incubated with kinetin riboside or vehicle control +/− forskolin, 4-(3-butoxy-4-methoxybenzyl)imidazolidin-2-one (BMBI), cantharadin, S-(4-Nitrobenzyl)-6-thioinosine (NBTI), or A-134974, as specified at 5 μM concentration for 16 hours at 37° C. […] Forskolin is a cell-permeable diterpenoid that activates adenylate cyclase resulting in increased cAMP concentration. BMBI (Sigma B8279) is an inhibitor of cAMP phosphodiesterase that also causes accumulation of cAMP. Cantharadin (C7632) is an inhibitor of protein phosphatase 2A and, from the library screen, mediates induction of CCND2. NBTI (Sigma N2255) is a potent adenosine uptake inhibitor, and A-134974 (Sigma A2846) is a selective inhibitor of adenosine kinase.
(§2) In an optimized automated assay, NIH3T3 cells over-expressing c-maf and the human cyclin D2 promoter driving luc were plated in 96-well plates by robot and following adhesion were treated for 16 hours with compounds at a final concentration of ˜5 μM and <0.1% DMSO. As a control, cells were treated with buffer alone. […] Thus, each compound from the library was tested in at least two assays—luciferase for CCND2 activity and MTS for viability. The coefficient of variance (CV) of the assay was <10%.

RSV promoter = assay: Luciferase driven by RSV promoter in NIH3T3 cells (specificity control); format: cell-based
Excerpt: Exclusion of non-specific or toxic assay ‘hits.’ Drugs that decreased luciferase activity without affecting viability may cause reduced transactivation of the cyclin D2 promoter, or may act non-specifically on the activity of the luciferase enzyme. To distinguish between these two possibilities, hits were re-tested against NIH3T3 cells that over-expressed luciferase driven by an RSV promoter. […] Therefore, these drugs were excluded from further analysis.

NIH3T3 cells = format: cell-based, mouse; conditions: MTS
Procedure: as §1
(§3) Viability assay. The effects of screened compounds on cell viability was assessed by 3-(4,5-dimethyl[…])-5-(3-carboxymethoxyphenyl)-2-(4-sulfophenyl)-2-H-tetrazolium (MTS) assay according to the manufacture's instructions (Progmega, Madison, Wis.). MTS reagent (20 μL/well in 96 well plates) was added to cells, and these were then incubated at 37° C. for 4 hours. Absorbance at 490 nm was determined using a 96-well plate reader.
as §2

[1] = system: human myeloma cell lines (HMCL); assay: HMCL viability / cytotoxicity (MTT, MTS); format: cell-based
Procedure: Subsequent validation studies using selected compounds in human myeloma cell lines (HMCL) confirmed successful suppression of both cyclin D2 and D1 polypeptides. Each of these compounds was then shown to be cytotoxic to a genetically diverse and standardized panel of 14 HMCL in MTT assays: monensin (10-760 nM), camptothecin (5-700 nM), dihydrogambogic acid (250-800 nM), pristimerin (150-500 nM), and kinetin riboside (2.5-20 μM). Cell cycle analysis confirmed induction of G0/G1 phase arrest for most compounds, consistent with cyclin D inhibition.
as §3

[2] = Pristimerin toxicity studies in mice; format: in vivo; conditions: i.p. daily
Procedure: While pristimerin is cytotoxic to HMCL and patient myeloma cells at 0.1-0.15 mg/L, toxicity studies in vivo indicate that the drug is tolerated in mice at 2.5 mg/kg i.p. daily.

[3] = system: CD138− hematopoietic cells; assay: Unsorted myeloma patient bone marrow, flow cytometry: CD138- non-malignant cells; format: cell-based; conditions: patient bone marrow, 48 hours
Procedure: Flow cytometry. HMCL were treated as indicated and then washed in cold phosphate-buffered saline (PBS) and resuspended in buffer containing AnnexinV-FITC and propidium iodide (BD Biosciences, San Jose, Calif.) for 15 minutes at room temperature. Cells (10^5) were subsequently diluted and analyzed immediately by flow cytometry (FACScan, BD Biosciences, San Jose, Calif.) using CellQuest software. Patient bone marrow specimens were prepared and analyzed in a similar fashion using AnnexinV-FITC and anti-CD138-PE (BD Biosciences, San Jose, Calif.).
As mouse embryos that lack any D-cyclins eventually die from hematopoietic failure (Kozar et al., Cell, 118, 477-91 (2004)), the bone marrow might be predicted to be one of the most sensitive non-malignant tissue to be affected by drugs targeting cyclin D expression. Unsorted bone marrow samples from myeloma patients were treated with kinetin riboside to assess the relative cytotoxicity of this drug on malignant versus non-malignant marrow cells. Bone marrow samples were first processed to remove non-nucleated red cells and were then treated for 48 hours with kinetin riboside (5 μM).

SMILES	identified as putative inhibitor of CCND2 transactivation (screen hit) (CCND2 promoter)	effect on luciferase driven by RSV promoter (RSV promoter)	effect on NIH3T3 viability (NIH3T3 cells)	cytotoxic concentration ([1]; HMCL and patient myeloma cells) [mg/L]	cytotoxic concentration across panel of 14 HMCL ([1]; MTT assays, 14 HMCL) [nM]	dose tolerated in mice [2] [mg/kg]	toxicity in CD138− bone marrow progenitor compartment [3]
O=C1C=C2C(=CCOC2O)O1 (centres unmarked) [patulin]	putative CCND2 inhibitors; also recorded: putative suppressors of CCND2	non-specifically reduce luciferase activity	excess NIH3T3 cytoxicity				
COC(=O)[C@]1(C)CC[C@]2(C)CC[C@]3(C)C4=CC=C5C(=CC(=O)C(O)=C5C)[C@]4(C)CC[C@@]3(C)[C@@H]2C1 [pristimerin]			relatively minor effects	0.1 to 0.15	150 to 500	2.5	only modest toxicity
